Measured values: patent US6642250B2, “1,8-naphthyridin-2(1H)-one derivatives” (Grelan Pharmaceutical Co., Ltd., priority 1999, dated 2003)

Key:
Type in all cases: biochemical
PDE II = biological target: T1, PDE II (Sus scrofa, UniProt F1SUV3); assay: PDE inhibition, type II PDE (cAMP substrate, cGMP added); details: PDE II from porcine hearts, cAMP 1 μM; read-out: Inhibition of PDE Isoenzymes (IC50) II
T1 sequence (F1SUV3 1-945): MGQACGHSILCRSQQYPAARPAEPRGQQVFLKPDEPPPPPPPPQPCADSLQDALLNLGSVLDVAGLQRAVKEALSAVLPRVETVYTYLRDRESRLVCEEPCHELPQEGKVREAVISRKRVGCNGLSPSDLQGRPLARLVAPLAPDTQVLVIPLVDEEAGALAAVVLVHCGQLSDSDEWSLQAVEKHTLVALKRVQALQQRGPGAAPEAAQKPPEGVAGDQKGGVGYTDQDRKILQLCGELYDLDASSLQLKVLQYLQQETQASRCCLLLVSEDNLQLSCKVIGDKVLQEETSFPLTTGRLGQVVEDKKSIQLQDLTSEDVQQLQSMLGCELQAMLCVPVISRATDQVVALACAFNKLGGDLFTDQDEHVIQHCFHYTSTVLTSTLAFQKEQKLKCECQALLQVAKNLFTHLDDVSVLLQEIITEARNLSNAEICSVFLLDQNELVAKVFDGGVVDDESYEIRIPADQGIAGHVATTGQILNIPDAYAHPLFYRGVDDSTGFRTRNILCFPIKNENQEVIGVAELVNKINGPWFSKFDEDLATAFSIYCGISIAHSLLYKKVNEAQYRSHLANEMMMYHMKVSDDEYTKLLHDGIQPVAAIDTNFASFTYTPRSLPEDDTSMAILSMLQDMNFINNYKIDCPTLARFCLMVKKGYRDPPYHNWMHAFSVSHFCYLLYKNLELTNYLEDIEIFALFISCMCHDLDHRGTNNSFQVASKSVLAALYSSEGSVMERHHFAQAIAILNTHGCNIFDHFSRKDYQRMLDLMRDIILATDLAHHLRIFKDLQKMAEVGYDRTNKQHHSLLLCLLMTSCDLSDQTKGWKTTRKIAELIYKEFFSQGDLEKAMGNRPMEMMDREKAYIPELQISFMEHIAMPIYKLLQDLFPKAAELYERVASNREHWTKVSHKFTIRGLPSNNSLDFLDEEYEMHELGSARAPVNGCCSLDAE
Experimental: (§1) The assays for PDE activity were conducted according to Nicholson et al. method (Br. J. Pharmacol., 97, 889 (1989)).
(§2) Among PDE isozymes, type I, II, III and IV PDEs as used herein were separated from porcine hearts by using an anion exchange chromatography. Type V PDE was also separated from porcine aortae with an anion exchange chromatography and used herein.
(§3) Each PDE isozyme was admixed with ethylene glycol (EG) to adjust the final EG concentration to 30%, then stored at −20° C. and diluted when used. The enzymatic activity for PDE I and V was measured using cGMP as a substrate while that for POE II, III and IV was measured using cAMP.
(§4) [^3H]-cAMP (962 GBq/mmol; Amersham, 25 μl (100,000 cpm)) or [^3H]-cGMP (962 GBq/mmol; Amersham, 25 μl (100,000 cpm)) was added together with each PDE isozyme (25 μl) to an incubation buffer solution with the composition given below to adjust the total volume to 250 μl. Each test compound was dissolved in DMSO to adjust the final concentration to 1% (2.5 μl/tube).
(§5) Incubation buffer solution (pH7.5):
(§6) Tris-HCl (50 mM), magnesium chloride (6 mM), dithiothreitol
(§7) (2.5 mM), 5-nucleotidase (4 μg/ml), bovine serum albumin
(§8) (0.23 mg/ml), and cAMP (1 μM) [or cGMP (1 μM)]
(§9) A mixture of the aforementioned test compound solution and the buffer solution was incubated at 30° C. for 20 minutes. The reaction was quenched by admixing with 1 ml of anion exchange resin slurry (AG1-X8, 200-400 meshes, chloride form; Bio-Rad) to absorb unreacted substrates.
(§10) After the reaction stopped, the mixture was centrifuged at 200×g for 10 minutes, and the resulting supernatant was collected with vials in 250 μl aliquots. To each vial was added 5 ml of ACS-II (scintillator, Amersham). The radioactivity was measured with a liquid scintillator counter for [^3H]-adenosine or [^3H]-guanosine and set as the PDE activity. The measurements were conducted under conditions wherein the enzymatic activity was elevated by adding calmodulin (20 U/ml; Amersham) and calcium chloride (0.1 mM) for PDE-I and cGMP (1 μM) for PDE II, respectively.
(§11) The % inhibition was calculated for test compounds, and IC50 (the concentration of each test compound required for 50% inhibition) was obtained by Probit method. The aforementioned rolipram ((−)-isomer, optical purity: 91% e.e.) known as the PDE IV inhibitor in the prior art was used for the reference compound in this assay.

PDE IV = tested on: T2, PDE IV; assay: PDE inhibition, type IV PDE (cAMP substrate); details: PDE IV from porcine hearts, cAMP 1 μM; read-out: Inhibition of PDE Isoenzymes (IC50) IV
T2 construct: other: PDE IV from porcine hearts, cAMP 1 μM
Experimental: as §1, §2, §3, §4, §5, §6, §7, §8, §9, §10, §11
Further, for a comparison with compounds as disclosed in JP, A, 63-159382 (1988), the PDE-inhibiting activity was also measured for Compounds A and D in Table 1 of JP, A, 63-159382 (1988).

PDE I = assay: PDE inhibition, type I PDE (cGMP substrate, calmodulin/CaCl2 added); details: PDE I from porcine hearts, cGMP 1 μM; read-out: Inhibition of PDE Isoenzymes (IC50) I
Experimental: as §1, §2, §3, §4, §5, §6, §7, §8, §9, §10, §11

PDE V = biological target: T3, PDE V (Sus scrofa, UniProt A0A287B475); assay: PDE inhibition, type V PDE (cGMP substrate); details: PDE V from porcine aortae, cGMP 1 μM; read-out: Inhibition of PDE Isoenzymes (IC50) V
T3 construct: Type V PDE was also separated from porcine aortae with an anion exchange chromatography and used herein
Experimental: as §1, §2, §3, §4, §5, §6, §7, §8, §9, §10, §11

Compound	IC50 (PDE II)	IC50 (PDE IV)	IC50 (PDE I)	IC50 (PDE V)
COc1ccc(C2CNC(=O)C2)cc1OC1CCCC1 (single isomer, unassigned) [Rolipram, rolipram, reference compound]	> 100 µM	0.78 to 3.2 µM	> 100 µM	
O=c1c(Cc2cccnc2)cc2cccnc2n1-c1cccc([N+](=O)[O-])c1 [Example No. 2, 1-(3-Nitrophenyl)-3-(pyridin-3-ylmethyl)-1,8-naphthyridin-2(1H)-one]	> 100 µM	0.11 µM	> 100 µM	16 µM
O=c1c(CCc2cccnc2)cc2cccnc2n1-c1cccc([N+](=O)[O-])c1 [Example No. 5, 1-(3-Nitrophenyl)-3-[2-(pyridin-3-yl)ethyl]-1,8-naphthyridin-2(1H)-one]	> 100 µM	0.06 µM	22 µM	13 µM
O=c1c(CCc2ccncc2)cc2cccnc2n1-c1cccc([N+](=O)[O-])c1 [Example No. 6, 1-(3-Nitrophenyl)-3-[2-(pyridin-4-yl)ethyl]-1,8-naphthyridin-2(1H)-one]	> 100 µM	0.16 µM	> 100 µM	15 µM
O=c1c(CCCc2cccnc2)cc2cccnc2n1-c1cccc([N+](=O)[O-])c1 [Example No. 7, 1-(3-Nitrophenyl)-3-[3-(pyridin-3-yl)propyl]-1,8-naphthyridin-2(1H)-one]	> 100 µM	1.3 µM	> 100 µM	4.7 µM
O=c1c(CCCc2ccncc2)cc2cccnc2n1-c1cccc([N+](=O)[O-])c1 [Example No. 8, 1-(3-Nitrophenyl)-3-[3-(pyridin-4-yl)propyl]-1,8-naphthyridin-2(1H)-one]	> 100 µM	0.44 µM	> 100 µM	> 100 µM
CSc1cccc(-n2c(=O)c(CCCc3ccncc3)cc3cccnc32)c1 [Example No. 10, 1-(3-Methylthiophenyl)-3-[3-(pyridin-4-yl)propyl]-1,8-naphthyridin-2(1H)-one]	52 µM	1.5 µM	> 100 µM	13 µM
O=c1c(CCCCc2cccnc2)cc2cccnc2n1-c1cccc([N+](=O)[O-])c1 [Example No. 14, 1-(3-Nitrophenyl)-3-[4-(pyridin-3-yl)butyl]-1,8-naphthyridin-2(1H)-one]	85 µM	1.5 µM	83 µM	5.1 µM
O=c1c(CCCCCc2cccnc2)cc2cccnc2n1-c1cccc([N+](=O)[O-])c1 [Example No. 16, 1-(3-Nitrophenyl)-3-[5-(pyridin-3-yl)pentyl]-1,8-naphthyridin-2(1H)-one]	63 µM	1.9 µM	98 µM	7.4 µM
O=c1c(CCCc2ccncc2)cc2cccnc2n1-c1cccnc1 [Example No. 23, 1-(Pyridin-3-yl)-3-[3-(pyridin-4-yl)propyl]-1,8-naphthyridin-2(1H)-one]	> 100 µM	1.2 µM	> 100 µM	> 100 µM
